According to the supplement of paper PMC10307832:

What was measured:
Test in all cases: relative viability (nuclei count vs DMSO), 5 days (fraction); higher = more cells survive
[1] = compound: C1=CC=C(C(=C1)C2=CC=C(C=C2)C3=CSC4=C3C(=C(C(=O)N4)C#N)O)O + Nc1nc2[nH]cc(CCc3ccc(C(=O)N[C@@H](CCC(=O)O)C(=O)O)cc3)c2c(=O)[nH]1 [Pemetrexed] (partner 0.2 µM)
In short: (§1)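 Lung cancer cell lines in 1536-well plates were dosed by pin tool the day after seeding, either with one drug alone or with a fixed anchor-drug dose plus five library-drug doses (not always all listed) in √10 steps. After 5 days, cells were fixed and their nuclei stained in one step (final 0.05% Triton X-100, 1% formaldehyde, 1 ug/ml Hoechst), then counted on 4× images. Relative viability is the nuclei count in treated wells divided by that in vehicle wells. Values are medians of duplicate plates.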

Ricolinostat + OSI-027 = compound: O=C(CCCCCCNC(=O)c1cnc(N(c2ccccc2)c2ccccc2)nc1)NO [Ricolinostat] + COc1cccc2cc(-c3nc([C@H]4CC[C@H](C(=O)O)CC4)n4ncnc(N)c34)[nH]c12 [OSI-027] (partner 0.5 µM)
In short: as §1

TGX 221 + Foretinib = compound: CC1=CN2C(=O)C=C(N=C2C(=C1)C(C)NC3=CC=CC=C3)N4CCOCC4 [TGX 221] + COc1cc2c(Oc3ccc(NC(=O)C4(C(=O)Nc5ccc(F)cc5)CC4)cc3F)ccnc2cc1OCCCN1CCOCC1 [Foretinib] (partner 0.25 µM)
In short: as §1

[2] = compound: C1=CC=C(C(=C1)C2=CC=C(C=C2)C3=CSC4=C3C(=C(C(=O)N4)C#N)O)O + CCNC(=O)c1noc(-c2cc(C(C)C)c(O)cc2O)c1-c1ccc(CN2CCOCC2)cc1 [Luminespib] (partner 0.01 µM)
In short: as §1

Cell Line	relative viability ([1]; first compound 0.08 µM)	relative viability ([1]; first compound 0.253 µM)	relative viability ([1]; first compound 0.8 µM)	relative viability ([1]; first compound 2.53 µM)	relative viability ([1]; first compound 8 µM)	relative viability (Ricolinostat + OSI-027; first compound 0.08 µM)	relative viability (Ricolinostat + OSI-027; first compound 0.253 µM)	relative viability (Ricolinostat + OSI-027; first compound 0.8 µM)	relative viability (Ricolinostat + OSI-027; first compound 2.53 µM)	relative viability (TGX 221 + Foretinib; first compound 0.08 µM)	relative viability (TGX 221 + Foretinib; first compound 0.253 µM)	relative viability (TGX 221 + Foretinib; first compound 0.8 µM)	relative viability (TGX 221 + Foretinib; first compound 2.53 µM)	relative viability (TGX 221 + Foretinib; first compound 8 µM)	relative viability ([2]; first compound 0.08 µM)	relative viability ([2]; first compound 0.253 µM)	relative viability ([2]; first compound 0.8 µM)	relative viability ([2]; first compound 2.53 µM)	relative viability ([2]; first compound 8 µM)
LCLC-103H	0.51	0.453	0.431	0.456	0.519	0.363	0.447	0.48	0.444	0.698	0.761	0.883	0.724	0.619	0.87	0.98	1.06	0.929	1.06
LK-2	0.168	0.245	0.236	0.325	0.196	0.202	0.234	0.212	0.208	1.2	1.2	1.53	1.17	0.998		0.192	0.193	0.184	0.191
LOU-NH91	0.386	0.337	0.399	0.384	0.406	0.511	0.713	0.672	0.647	0.766	0.922	0.945	0.907	0.781	0.439	0.41	0.304	0.364	0.33
LU99A	0.191	0.138	0.265	0.178	0.335	0.243	0.296	0.305	0.249	0.68	0.902	0.755	0.917	0.953	0.245	0.234	0.295	0.261	0.242
NCI-H522	0.965	1.02	1.04	0.911	0.878	0.822	0.736	0.665	0.69							1.28	1.2	1.27	0.937
NCI-H727						0.389	0.671	0.551	0.657	0.876	1.05	1.16	1.12	1.05	0.451	0.356	0.43	0.487	0.341
NCI-H1299										1.12	1.06	1.1	1.13	1.07					
NCI-H1623						0.389	0.428	0.414	0.312	0.815	0.858	0.827	0.826	0.77	0.454	0.591	0.817	0.434	0.419
NCI-H1648		0.682	0.732	0.813	0.747	0.28	0.281	0.249	0.259										
NCI-H1703										0.328	0.275	0.335	0.317	0.337					
